Experimental data from patent publication US20240174744A1, “METHODS OF TREATMENT USING PROTEIN BINDERS TO IRHOM2 EPITOPES” (SCIRHOM GMBH, priority 2021, published 2024).

Test system: PMA-induced release of IL-6R from PBMCs from patients suffering from rheumatoid arthritis
Assay: ELISA-based IL-6R release assay, PBMCs from RA-patients
Assay type: cell-based
Conditions: Homo sapiens, PBMC; chimeric antibodies (CHO) 1 μg/ml; Batimastat 10 μM; PMA 25 ng/ml, 24 hours
Experimental: In contrast to Example 34, where the inhibitory effects of the antibodies of the present disclosure on PMA-induced release of endogenous IL-6R from primary human material obtained from healthy donors using peripheral blood mononuclear cells (PBMCs) were tested, this analysis was conducted to analyze the inhibitory effects of the antibodies of the present disclosure on PMA-induced release of endogenous IL-6R from primary human material obtained from patients suffering from rheumatoid arthritis (RA-patients).
In brief, on day 1, Nunc black MaxiSorp® 96-well plates (Thermo Fisher Scientific, USA) were coated overnight with 100 μl per well of mouse anti-human IL-6R capture antibody (provided as part of the DuoSet ELISA kit) at 4 μg/ml TBS at 4° C. […] Using an infinite M1000 (Tecan Group, Switzerland) microplate reader, the fluorescence of each well was collected at an excitation wavelength of 435 nm and an emission wavelength of 555 nm.

Molecule `CNC(=O)[C@H](Cc1ccccc1)NC(=O)[C@H](CC(C)C)[C@H](CSc1cccs1)C(=O)NO` [Batimastat] has an inhibition at 10 µM of 104%.
